PubChem BioAssay AID1963958 (Molecular Pharmacology Branch, DTP, NCI, 2024)

System: MDA-MB-231 multicell spheroids, viability
Assay: Anticancer human tumor MDA-MB-231 cell line growth inhibition [PI3K];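 also: spheroids exposed to agents for seven days before reading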;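 as to viability, T/C: percent of vehicle control luminescence with DMSO treated spheroids as 100%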
Conditions: for IC50: curve of first compound; for viability, T/C: stronger effect = lower value
In short: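 Combination activity was assessed by viability in multicellular tumor spheroids carrying HUVEC and MSC components. Agents were tested with PI3K inhibitors from a Cmax-based top dose (or 10 microM) downward in half-log increments.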

[1] = second compound 0.00316 µM, first compound 0.0316 µM
[2] = second compound 0.00316 µM, first compound 0.1 µM
[3] = second compound 0.00316 µM, first compound 0.316 µM
[4] = second compound 0.00316 µM, first compound 1 µM
[5] = second compound 0.00316 µM, first compound 3.16 µM
[6] = second compound 0.00316 µM, first compound 10 µM
[7] = second compound 0.01 µM, first compound 0.0316 µM
[8] = second compound 0.01 µM, first compound 0.1 µM
[9] = second compound 0.01 µM, first compound 0.316 µM
[10] = second compound 0.01 µM, first compound 1 µM
[11] = second compound 0.01 µM, first compound 3.16 µM
[12] = second compound 0.01 µM, first compound 10 µM
[13] = second compound 0.0316 µM, first compound 0.0316 µM
[14] = second compound 0.0316 µM, first compound 0.1 µM
[15] = second compound 0.0316 µM, first compound 0.316 µM
[16] = second compound 0.0316 µM, first compound 1 µM
[17] = second compound 0.0316 µM, first compound 3.16 µM
[18] = second compound 0.0316 µM, first compound 10 µM
[19] = second compound 0.1 µM, first compound 0.0316 µM
[20] = second compound 0.1 µM, first compound 0.1 µM
[21] = second compound 0.1 µM, first compound 0.316 µM
[22] = second compound 0.1 µM, first compound 1 µM
[23] = second compound 0.1 µM, first compound 3.16 µM
[24] = second compound 0.1 µM, first compound 10 µM
[25] = second compound 0.316 µM, first compound 0.0316 µM
[26] = second compound 0.316 µM, first compound 0.1 µM
[27] = second compound 0.316 µM, first compound 0.316 µM
[28] = second compound 0.316 µM, first compound 1 µM
[29] = second compound 0.316 µM, first compound 3.16 µM
[30] = second compound 0.316 µM, first compound 10 µM
[31] = second compound 1 µM, first compound 0.0316 µM
[32] = second compound 1 µM, first compound 0.1 µM
[33] = second compound 1 µM, first compound 0.316 µM
[34] = second compound 1 µM, first compound 1 µM
[35] = second compound 1 µM, first compound 3.16 µM
[36] = second compound 1 µM, first compound 10 µM

Cn1ncc(Cl)c1-c1cc(C(=O)NC(CN)Cc2cccc(F)c2)sc1Cl (centres undefined) + COc1c(OCCCN2CCOCC2)ccc2c3n(c(=NC(=O)c4cnc(N)nc4)nc12)CCN3
IC50 (second compound 0.00316 µM): 2620 nM | IC50 (second compound 0.01 µM): 2080 nM | IC50 (second compound 0.0316 µM): 1040 nM | IC50 (second compound 0.1 µM): < 31.6 nM | IC50 (second compound 0.316 µM): < 31.6 nM | IC50 (second compound 1 µM): < 31.6 nM | viability, T/C [1]: 99.2% | viability, T/C [2]: 93.8% | viability, T/C [3]: 84.5% | viability, T/C [4]: 72% | viability, T/C [5]: 44.6% | viability, T/C [6]: 25.7% | viability, T/C [7]: 78.6% | viability, T/C [8]: 83.1% | viability, T/C [9]: 74.2% | viability, T/C [10]: 63.7% | viability, T/C [11]: 42.3% | viability, T/C [12]: 25.4% | viability, T/C [13]: 60.2% | viability, T/C [14]: 61.5% | viability, T/C [15]: 60.8% | viability, T/C [16]: 48.9% | viability, T/C [17]: 34.8% | viability, T/C [18]: 19.6% | viability, T/C [19]: 48.2% | viability, T/C [20]: 47.5% | viability, T/C [21]: 46% | viability, T/C [22]: 40.7% | viability, T/C [23]: 29.9% | viability, T/C [24]: 17.4% | viability, T/C [25]: 32.5% | viability, T/C [26]: 33.6% | viability, T/C [27]: 29.9% | viability, T/C [28]: 29.2% | viability, T/C [29]: 20.9% | viability, T/C [30]: 13.9% | viability, T/C [31]: 25.8% | viability, T/C [32]: 24.8% | viability, T/C [33]: 24.4% | viability, T/C [34]: 23.4% | viability, T/C [35]: 22.2% | viability, T/C [36]: 20.8%

Cn1nccc1Nc1nccc(-c2ccn(C(CO)c3ccc(Cl)c(F)c3)c(=O)c2)n1 (centres undefined) + COc1c(OCCCN2CCOCC2)ccc2c3n(c(=NC(=O)c4cnc(N)nc4)nc12)CCN3
IC50 (second compound 0.00316 µM): 467 nM | IC50 (second compound 0.01 µM): 222 nM | IC50 (second compound 0.0316 µM): 48.2 nM | IC50 (second compound 0.1 µM): < 31.6 nM | IC50 (second compound 0.316 µM): < 31.6 nM | IC50 (second compound 1 µM): < 31.6 nM | viability, T/C [1]: 74.5% | viability, T/C [2]: 69.9% | viability, T/C [3]: 48.3% | viability, T/C [4]: 44% | viability, T/C [5]: 37.7% | viability, T/C [6]: 28% | viability, T/C [7]: 65.9% | viability, T/C [8]: 58.6% | viability, T/C [9]: 46% | viability, T/C [10]: 34.8% | viability, T/C [11]: 28.3% | viability, T/C [12]: 23.5% | viability, T/C [13]: 50.3% | viability, T/C [14]: 48.9% | viability, T/C [15]: 41.8% | viability, T/C [16]: 32.5% | viability, T/C [17]: 26.6% | viability, T/C [18]: 20.4% | viability, T/C [19]: 41.6% | viability, T/C [20]: 34.3% | viability, T/C [21]: 29.3% | viability, T/C [22]: 25.9% | viability, T/C [23]: 22.4% | viability, T/C [24]: 13.1% | viability, T/C [25]: 25.8% | viability, T/C [26]: 22.8% | viability, T/C [27]: 17.8% | viability, T/C [28]: 17% | viability, T/C [29]: 13.2% | viability, T/C [30]: 8.91% | viability, T/C [31]: 20.8% | viability, T/C [32]: 16.8% | viability, T/C [33]: 13.8% | viability, T/C [34]: 12.7% | viability, T/C [35]: 10.5% | viability, T/C [36]: 7.95%
